Test results published in patent US20240335431A1, “1-H-PYRROLO[2,3-c]PYRIDINE COMPOUNDS” (Acerta Pharma B.V., priority 2023, published 2024).
pIC50: −log10 of the molar value.

Key:
Menin protein = Menin protein (Homo sapiens, UniProt O00255, DEL460-519); test: Menin/MLL fluorescence polarization (FP) assay; format: binding; conditions: Menin 2 nM, cRho110-Ahx-MBM1/MBM2 peptide 1 nM
Experimental: Compounds were tested in a biochemical binding assay using Menin protein at 2 nM (N6his-tev-Menin_4i80, PB-20-1459) and the substrate cRho110-Ahx-MBM1/MBM2 peptide (UbiQ, UbiQ-Q20201030; cRh110-Ahx-[…]-QRVPALLLPPG-NH2) at 1 nM.
384 Low volume black plates (Corning #4514) were used. 5 μL/well compound or 3% DMSO was added at 10-fold serial dilutions in DMSO from 10 μM. 5 μL/well cRho110-Ahx-MBM1/MBM2 peptide or binding buffer (50 mM Tris pH 7.5, 50 mM NaCl, 1 mM TCEP, 0.01% BGG, 0.01% Brij-35) was added to all wells. 5 μL/well Menin protein or binding buffer (50 mM Tris pH 7.5, 50 mM NaCl, 1 mM TCEP, 0.01% BGG, 0.01% Brij-35) was added to all wells. Plates were read on an EnVision plate reader (Perkin Elmer) with excitation at 480 nm and emission at 535 nm P+S, and measured every 5 minutes for 180 minutes.
Data were analyzed in Genedata Screener®. IC50 values were determined by plotting % inhibition versus log compound concentration and using a one site dose response model. Raw data signals were normalized using 1% DMSO no Menin as 100% inhibitor control and 1% DMSO with Menin and no inhibitor as 0% inhibitor control.

hERG = hERG (Homo sapiens (Human), UniProt Q12809); test: hERG assay 2, QPatch II 48X, room temperature; format: cell-based; conditions: hERG DUO cell line, top 200 μM
Experimental: Experiments were performed on the QPatch II 48X (Sophion Biosciences) high throughput patch clamp platform at room temperature and used single hole Qplates. hERG DUO cell line (BSys) was used. The internal patch clamp solution was KF 60 mM, KCl 70 mM, HEPES 10 mM, EGTA 10 mM, and 5 mM Mg ATP (pH7.2). After sealing and whole cell access was gained the external solution (NaCl 140 mM, KCl 4 mM, HEPES 10 mM, CaCl2 2 mM, MgCl2 1 mM, glucose 5 mM (pH 7.4) was applied twice to establish stable baseline currents. An industry standard +40/−40 mV voltage protocol was applied every 15 seconds. All compounds were tested in a 6-point cumulative assay (final DMSO concentration 0.4-2% depending on stock concentration of compounds). Compounds were dispensed from initial 10 mM or 50 mM DMSO stocks after which DMSO dilutions were undertaken with a top concentration of 200 μM tested. Solvent controls were run in all experiments in line with the DMSO % required. Only wells that passed acceptance criteria for this platform were used in this analysis (500 MegaOhm seal resistance and current size >0.2 nA). Analysis was completed in Prism Graphpad to complete a composite IC50, by plotting % inhibition versus log compound concentration and using a log(inhibitor) vs. response—Variable slope.

muscarinic M2 receptor = muscarinic M2 receptor (Homo sapiens (Human), UniProt P08172); test: Muscarinic M2 receptor functional assay, antagonist effect (assay 2); format: cell-based; conditions: cAMP, 1 μM acetylcholine
Experimental: Thereafter, the reference agonist acetylcholine and the adenylyl cyclase activator NKH 477 were added at respective final concentrations of 1 μM and 5 μM. For basal control measurements, acetylcholine was omitted from the wells containing 10 μM methoctramine. Following 10 minutes incubation at 37° C., the cells were lysed, and the fluorescence acceptor (D2-labeled cAMP) and fluorescence donor (anti-cAMP antibody labelled with europium cryptate) were added. After 60 minutes at room temperature, the fluorescence transfer was measured at λex=337 nm and λem=620 and 665 nm using a microplate reader (Rubystar, BMG). The cAMP concentration was determined by dividing the signal measured at 665 nm by that measured at 620 nm (ratio). The results were expressed as a percent inhibition of the control response to 1 μM acetylcholine. For test compounds and for standard reference antagonist methoctramine, which is tested in each experiment, assays were run in eight-point concentration response mode and IC50 values determined following non-linear regression curve analysis. Curve analysis was completed using software developed at Cerep (Hill software) and validated by comparison with data generated by the commercial software SigmaPlot®4.0 for Windows® (© 1997 by SPSS Inc.).

Sequence of muscarinic M2 receptor (P08172 whole entry): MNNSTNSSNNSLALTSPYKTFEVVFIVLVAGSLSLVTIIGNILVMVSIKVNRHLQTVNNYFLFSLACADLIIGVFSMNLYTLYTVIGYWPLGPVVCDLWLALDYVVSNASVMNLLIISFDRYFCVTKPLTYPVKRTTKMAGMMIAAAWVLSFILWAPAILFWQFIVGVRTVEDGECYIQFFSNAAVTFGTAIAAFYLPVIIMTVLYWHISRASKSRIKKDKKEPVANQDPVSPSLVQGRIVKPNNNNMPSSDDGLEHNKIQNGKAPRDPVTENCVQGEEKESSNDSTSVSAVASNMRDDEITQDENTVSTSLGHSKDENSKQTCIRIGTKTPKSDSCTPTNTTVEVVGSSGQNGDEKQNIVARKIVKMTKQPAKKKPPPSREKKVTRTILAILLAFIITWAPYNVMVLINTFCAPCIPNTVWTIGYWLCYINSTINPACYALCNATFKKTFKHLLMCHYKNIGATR
Sequence of Menin protein (O00255 with tags, fused parts or gaps DEL460-519): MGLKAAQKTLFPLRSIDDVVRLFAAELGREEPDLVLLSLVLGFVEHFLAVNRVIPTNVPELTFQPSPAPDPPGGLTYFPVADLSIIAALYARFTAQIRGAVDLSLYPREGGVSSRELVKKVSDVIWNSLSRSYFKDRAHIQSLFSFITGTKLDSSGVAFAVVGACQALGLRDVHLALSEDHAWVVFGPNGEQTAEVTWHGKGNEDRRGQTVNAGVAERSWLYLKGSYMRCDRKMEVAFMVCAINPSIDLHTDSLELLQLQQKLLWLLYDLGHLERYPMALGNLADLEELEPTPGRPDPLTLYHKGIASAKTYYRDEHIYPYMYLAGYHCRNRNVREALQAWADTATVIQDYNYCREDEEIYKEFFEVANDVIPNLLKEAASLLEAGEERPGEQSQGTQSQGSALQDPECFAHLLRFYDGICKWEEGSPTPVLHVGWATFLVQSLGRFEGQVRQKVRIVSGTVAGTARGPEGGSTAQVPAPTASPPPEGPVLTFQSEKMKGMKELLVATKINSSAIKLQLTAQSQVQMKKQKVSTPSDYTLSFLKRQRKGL
Sequence of hERG (Q12809 whole entry): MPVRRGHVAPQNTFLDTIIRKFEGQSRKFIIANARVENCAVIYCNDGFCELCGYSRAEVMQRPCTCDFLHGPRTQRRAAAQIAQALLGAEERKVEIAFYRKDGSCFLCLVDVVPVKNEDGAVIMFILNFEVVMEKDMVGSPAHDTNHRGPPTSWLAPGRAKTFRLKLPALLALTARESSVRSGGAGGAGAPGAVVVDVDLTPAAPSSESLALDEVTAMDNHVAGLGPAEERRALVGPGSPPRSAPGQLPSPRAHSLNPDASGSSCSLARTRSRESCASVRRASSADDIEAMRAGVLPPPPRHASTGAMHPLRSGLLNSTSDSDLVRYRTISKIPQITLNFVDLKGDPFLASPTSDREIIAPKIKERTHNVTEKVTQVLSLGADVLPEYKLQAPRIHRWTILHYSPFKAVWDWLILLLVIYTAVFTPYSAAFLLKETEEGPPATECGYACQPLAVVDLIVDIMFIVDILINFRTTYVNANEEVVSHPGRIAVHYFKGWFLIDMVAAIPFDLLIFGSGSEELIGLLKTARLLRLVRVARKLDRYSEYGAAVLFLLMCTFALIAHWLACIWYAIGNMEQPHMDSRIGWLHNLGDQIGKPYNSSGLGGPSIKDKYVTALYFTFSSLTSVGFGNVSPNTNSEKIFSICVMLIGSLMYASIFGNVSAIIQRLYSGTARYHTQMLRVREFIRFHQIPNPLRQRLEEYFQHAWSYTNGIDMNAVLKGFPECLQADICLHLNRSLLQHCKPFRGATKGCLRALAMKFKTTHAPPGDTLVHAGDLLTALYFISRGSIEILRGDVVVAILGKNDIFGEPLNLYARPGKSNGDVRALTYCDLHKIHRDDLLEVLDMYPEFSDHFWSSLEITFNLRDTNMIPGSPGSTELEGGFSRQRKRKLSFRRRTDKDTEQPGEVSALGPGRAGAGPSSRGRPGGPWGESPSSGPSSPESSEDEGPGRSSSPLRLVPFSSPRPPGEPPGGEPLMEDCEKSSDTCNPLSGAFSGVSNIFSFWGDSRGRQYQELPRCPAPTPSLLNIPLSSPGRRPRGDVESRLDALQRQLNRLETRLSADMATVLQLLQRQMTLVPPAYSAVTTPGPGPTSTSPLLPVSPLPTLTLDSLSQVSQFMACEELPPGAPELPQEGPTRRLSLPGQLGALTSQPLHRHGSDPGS

| pIC50 (Menin protein) | pIC50 (muscarinic M2 receptor) | SMILES | pIC50 (hERG) |
| --- | --- | --- | --- |
| 7.54 |  | CCN(C(=O)c1cc(F)ccc1-n1c(C)c(C(=O)C2CCN(C(=O)[C@@H]3CCC(C)(C)N3)CC2)c2ccncc21)C(C)C (single isomer, unassigned) [Example 50-2] |  |
|  |  | CC(C)N(C(=O)c1cc(F)ccc1-n1cc(C(=O)C2CN(C(=O)[C@H]3N[C@H]4C[C@@H]3[C@@H](F)C4)C2)c2ccncc21)C(C)C [Example 7, 5-Fluoro-2-(3-(1-((1S,3S,4S,5S)-5-fluoro-2-azabicyclo[2.2.1]heptane-3-carbonyl)azetidine-3-carbonyl)-1H-pyrrolo[2,3-c]pyridin-1-yl)-N,N-diisopropylbenzamide] | 3.82 |
|  | 4.67 | CC(C)N(C(=O)c1cc(F)ccc1-n1cc(C(=O)C2CCN(C(=O)[C@H]3NC[C@@H]4C[C@@H]43)CC2)c2ccncc21)C(C)C [Example 19, 2-(3-(1-((1S,2S,5R)-3-Azabicyclo[3.1.0]hexane-2-carbonyl)piperidine-4-carbonyl)-1H-pyrrolo[2,3-c]pyridin-1-yl)-5-fluoro-N,N-diisopropylbenzamide] | 3.89 |
| 7.54 |  | C[C@@H]1COC[C@@H](C)N1C(=O)c1cc(F)ccc1-n1cc(C(=O)C2CCN(C(=O)[C@H]3N[C@@H]4CC[C@H]3C4)CC2)c2ccncc21 [Example 34, (1-((1R,3S,4S)-2-Azabicyclo[2.2.1]heptane-3-carbonyl)piperidin-4-yl)(1-(2-((3R,5R)-3,5-dimethylmorpholine-4-carbonyl)-4-fluorophenyl)-1H-pyrrolo[2,3-c]pyridin-3-yl)methanone] |  |
|  |  | CCN(C(=O)c1cc(F)ccc1-n1c(C)c(C(=O)C2CCN(C(=O)[C@H]3N[C@@H]4CC[C@H]3C4)CC2)c2ccncc21)C(C)C [Example 46, 2-(3-(1-((1R,3S,4S)-2-Azabicyclo[2.2.1]heptane-3-carbonyl)piperidine-4-carbonyl)-2-methyl-1H-pyrrolo[2,3-c]pyridin-1-yl)-N-ethyl-5-fluoro-N-isopropylbenzamide] | < 3.70 |
| 7.66 |  | Cc1c(C(=O)C2CCN(C(=O)[C@H]3NC[C@@H]4C[C@@H]43)CC2)c2ccncc2n1-c1ccc(F)cc1C(=O)N(CC(F)(F)F)C(C)C (single isomer, unassigned) [Example 51-2] | < 3.70 |
| 7.85 |  | Cc1c(C(=O)[C@@H]2CCN(C(=O)[C@H]3NC[C@@H]4C[C@@H]43)[C@@H](C)C2)c2ccncc2n1-c1ccc(F)cc1C(=O)N(CC(F)(F)F)C(C)C (single isomer, unassigned) [Example 53-3, 2-(3-((2R*,4S*)-1-((1S,2S,5R)-3-Azabicyclo[3.1.0]hexane-2-carbonyl)-2-methylpiperidine-4-carbonyl)-2-methyl-1H-pyrrolo[2,3-c]pyridin-1-yl)-5-fluoro-N-isopropyl-N-(2,2,2-trifluoroethyl)benzamide] |  |
|  | 4.20 | CCN(C(=O)c1cc(F)ccc1-n1c(C)c(C(=O)C2CCN(C(=O)[C@H]3NC[C@@H]4C[C@@H]43)CC2)c2ccncc21)C(C)C [Example 47, 2-(3-(1-((1S,2S,5R)-3-Azabicyclo[3.1.0]hexane-2-carbonyl)piperidine-4-carbonyl)-2-methyl-1H-pyrrolo[2,3-c]pyridin-1-yl)-N-ethyl-5-fluoro-N-isopropylbenzamide] | 3.71 |
| 7.77 |  | CCN(C(=O)c1cc(F)ccc1-n1cc(C(=O)C2CCN(C(=O)[C@H]3NC[C@@H]4C[C@@H]43)CC2)c2ccncc21)C(C)C [Example 28, 2-(3-(1-((1S,2S,5R)-3-Azabicyclo[3.1.0]hexane-2-carbonyl)piperidine-4-carbonyl)-1H-pyrrolo[2,3-c]pyridin-1-yl)-N-ethyl-5-fluoro-N-isopropylbenzamide] | < 3.70 |
|  |  | CC(C)c1ncccc1-c1cc(F)ccc1-n1cc(C(=O)C2CCN(C(=O)[C@H]3N[C@@H]4CC[C@H]3C4)CC2)c2ccncc21 [Example 38, (1-((1R,3S,4S)-2-Azabicyclo[2.2.1]heptane-3-carbonyl)piperidin-4-yl)(1-(4-fluoro-2-(2-isopropylpyridin-3-yl)phenyl)-1H-pyrrolo[2,3-c]pyridin-3-yl)methanone] | 4.59 |
|  | 5.28 | CC(C)N(C(=O)c1cc(F)ccc1-n1cc(C(=O)[C@H]2CCN(C(=O)[C@H]3N[C@@H]4CC[C@H]3C4)C2)c2ccncc21)C(C)C [Example 2, 2-(3-((S)-1-((1R,3S,4S)-2-Azabicyclo[2.2.1]heptane-3-carbonyl)pyrrolidine-3-carbonyl)-1H-pyrrolo[2,3-c]pyridin-1-yl)-5-fluoro-N,N-diisopropylbenzamide] | < 3.70 |
|  | 5.96 | CC(C)N(C(=O)c1cc(F)ccc1-n1cc(C(=O)C2CCN(C(=O)[C@H]3N[C@@H]4CC[C@H]3C4)CC2)c2ccncc21)C(C)C [Example 16, 2-(3-(1-((1R,3S,4S)-2-Azabicyclo[2.2.1]heptane-3-carbonyl)piperidine-4-carbonyl)-1H-pyrrolo[2,3-c]pyridin-1-yl)-5-fluoro-N,N-diisopropylbenzamide] | 3.89 |
|  |  | CC(C)n1nccc1-c1cc(F)ccc1-n1cc(C(=O)C2CCN(C(=O)[C@H]3N[C@@H]4CC[C@H]3C4)CC2)c2ccncc21 [Example 36, (1-((1R,3S,4S)-2-Azabicyclo[2.2.1]heptane-3-carbonyl)piperidin-4-yl)(1-(4-fluoro-2-(1-isopropyl-1H-pyrazol-5-yl)phenyl)-1H-pyrrolo[2,3-c]pyridin-3-yl)methanone] | 4.44 |
| 8.05 |  | Cc1c(C(=O)C2CCN(C(=O)[C@H]3NC[C@@H]4C[C@@H]43)CC2)c2ccncc2n1-c1ccc(F)cc1C(=O)N(C(C)C)C(C)C (single isomer, unassigned) [Example 55-2] | 4.08 |
|  | < 4.00 | CC(C)N(C(=O)c1cc(F)ccc1-n1cc(C(=O)C2CN(C(=O)[C@H]3N[C@@H]4CC[C@H]3C4)C2)c2ccncc21)C(C)C [Example 5, 2-(3-(1-((1R,3S,4S)-2-Azabicyclo[2.2.1]heptane-3-carbonyl)azetidine-3-carbonyl)-1H-pyrrolo[2,3-c]pyridin-1-yl)-5-fluoro-N,N-diisopropylbenzamide] | < 3.70 |
|  |  | CC(C)c1ncncc1-c1cc(F)ccc1-n1cc(C(=O)C2CCN(C(=O)[C@H]3N[C@@H]4CC[C@H]3C4)CC2)c2ccncc21 [Example 37, (1-((1R,3S,4S)-2-Azabicyclo[2.2.1]heptane-3-carbonyl)piperidin-4-yl)(1-(4-fluoro-2-(4-isopropylpyrimidin-5-yl)phenyl)-1H-pyrrolo[2,3-c]pyridin-3-yl)methanone] | < 3.70 |
|  |  | CCN(C(=O)c1cc(F)ccc1-n1cc(C(=O)C2CCN(C(=O)[C@H]3N[C@@H]4CC[C@H]3C4)CC2)c2ccncc21)C(C)C [Example 31, 2-(3-(1-((1R,3S,4S)-2-Azabicyclo[2.2.1]heptane-3-carbonyl)piperidine-4-carbonyl)-1H-pyrrolo[2,3-c]pyridin-1-yl)-N-ethyl-5-fluoro-N-isopropylbenzamide] | < 3.70 |
| 7.89 |  | CCN(C(=O)c1cc(F)ccc1-n1c(C)c(C(=O)C2CCN(C(=O)[C@H]3NC[C@@H]4C[C@@H]43)CC2)c2ccncc21)C(C)C (single isomer, unassigned) [Example 48-2] | < 3.70 |

| SMILES | pIC50 (Menin protein) | pIC50 (muscarinic M2 receptor) | pIC50 (hERG) |
| --- | --- | --- | --- |
| CCN(C(=O)c1cc(F)ccc1-n1c(C)c(C(=O)C2CCN(C(=O)[C@@H]3CCC4(CC4)N3)CC2)c2ccncc21)C(C)C (single isomer, unassigned) [Example 49-2] | 7.54 |  |  |
